Source: ChEMBL document CHEMBL1671819, “Interactions of monoamine oxidases with the antiepileptic drug zonisamide: specificity of inhibition and structure of the human monoamine oxidase B complex” (J Med Chem, 2011)
pKi: −log10 of the molar value.

Tests used:
[1] = molecular target: T1, Amine oxidase [flavin-containing] A (Homo sapiens, UniProt P21397); assay: Competitive inhibition of human MAOA by spectrophotometry
T1 sequence (P21397 whole entry): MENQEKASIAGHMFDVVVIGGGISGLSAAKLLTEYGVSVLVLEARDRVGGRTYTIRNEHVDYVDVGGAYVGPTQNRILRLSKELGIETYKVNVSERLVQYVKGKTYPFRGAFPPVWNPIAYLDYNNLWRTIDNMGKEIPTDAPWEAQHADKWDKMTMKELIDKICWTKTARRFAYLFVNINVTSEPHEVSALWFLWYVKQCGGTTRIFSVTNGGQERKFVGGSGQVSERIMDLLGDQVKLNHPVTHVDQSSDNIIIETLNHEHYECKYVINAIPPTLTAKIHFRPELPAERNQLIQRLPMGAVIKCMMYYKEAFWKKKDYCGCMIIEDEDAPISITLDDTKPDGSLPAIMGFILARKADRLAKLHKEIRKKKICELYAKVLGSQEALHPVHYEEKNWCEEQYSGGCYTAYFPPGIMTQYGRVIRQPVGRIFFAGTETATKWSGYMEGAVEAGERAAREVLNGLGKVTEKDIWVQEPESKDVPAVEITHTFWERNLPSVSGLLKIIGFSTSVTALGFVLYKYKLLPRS

Serum = assay: Drug level in parkinson's disease patient serum at 25 mg/day; format: ADME, cell-free; details: human, read-out: Drug uptake
[2] = molecular target: T2, Amine oxidase [flavin-containing] (Danio rerio, UniProt Q6NSN2); assay: Competitive inhibition of zebrafish MAO by spectrophotometry
T2 sequence (Q6NSN2 whole entry): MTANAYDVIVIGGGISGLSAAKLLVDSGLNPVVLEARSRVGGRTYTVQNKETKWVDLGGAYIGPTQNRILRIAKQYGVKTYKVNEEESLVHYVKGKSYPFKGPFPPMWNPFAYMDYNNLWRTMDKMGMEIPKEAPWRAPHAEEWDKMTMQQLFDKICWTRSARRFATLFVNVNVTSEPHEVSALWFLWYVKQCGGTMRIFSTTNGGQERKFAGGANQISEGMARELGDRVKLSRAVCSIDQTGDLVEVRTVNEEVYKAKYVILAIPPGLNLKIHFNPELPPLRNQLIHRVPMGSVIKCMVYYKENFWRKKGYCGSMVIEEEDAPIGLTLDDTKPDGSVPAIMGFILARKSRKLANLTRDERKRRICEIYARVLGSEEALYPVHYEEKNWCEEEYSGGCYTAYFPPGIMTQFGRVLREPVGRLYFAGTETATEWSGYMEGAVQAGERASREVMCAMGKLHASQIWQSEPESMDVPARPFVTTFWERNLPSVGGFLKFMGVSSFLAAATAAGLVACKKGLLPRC

[3] = molecular target: T3, Amine oxidase [flavin-containing] A (Rattus norvegicus, UniProt P21396); assay: Competitive inhibition of rat MAOA by spectrophotometry
T3 sequence (P21396 whole entry): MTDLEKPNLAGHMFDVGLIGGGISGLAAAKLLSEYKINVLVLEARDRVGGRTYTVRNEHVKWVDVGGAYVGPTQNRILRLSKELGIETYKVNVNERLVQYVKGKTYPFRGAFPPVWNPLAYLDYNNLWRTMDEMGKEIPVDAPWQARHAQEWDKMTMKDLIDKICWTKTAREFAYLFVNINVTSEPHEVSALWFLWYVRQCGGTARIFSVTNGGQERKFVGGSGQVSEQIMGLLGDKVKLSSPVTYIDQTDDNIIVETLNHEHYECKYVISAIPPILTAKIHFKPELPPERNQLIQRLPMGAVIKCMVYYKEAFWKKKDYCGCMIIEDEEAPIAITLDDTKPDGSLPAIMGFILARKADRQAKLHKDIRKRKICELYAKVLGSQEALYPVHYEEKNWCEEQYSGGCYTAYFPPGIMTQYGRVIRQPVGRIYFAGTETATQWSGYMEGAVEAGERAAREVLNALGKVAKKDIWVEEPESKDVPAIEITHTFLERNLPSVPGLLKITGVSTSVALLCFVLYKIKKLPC

[4] = molecular target: T4, Amine oxidase [flavin-containing] B (Rattus norvegicus, UniProt P19643); assay: Competitive inhibition of rat MAO B by spectrophotometry
T4 sequence (P19643 whole entry): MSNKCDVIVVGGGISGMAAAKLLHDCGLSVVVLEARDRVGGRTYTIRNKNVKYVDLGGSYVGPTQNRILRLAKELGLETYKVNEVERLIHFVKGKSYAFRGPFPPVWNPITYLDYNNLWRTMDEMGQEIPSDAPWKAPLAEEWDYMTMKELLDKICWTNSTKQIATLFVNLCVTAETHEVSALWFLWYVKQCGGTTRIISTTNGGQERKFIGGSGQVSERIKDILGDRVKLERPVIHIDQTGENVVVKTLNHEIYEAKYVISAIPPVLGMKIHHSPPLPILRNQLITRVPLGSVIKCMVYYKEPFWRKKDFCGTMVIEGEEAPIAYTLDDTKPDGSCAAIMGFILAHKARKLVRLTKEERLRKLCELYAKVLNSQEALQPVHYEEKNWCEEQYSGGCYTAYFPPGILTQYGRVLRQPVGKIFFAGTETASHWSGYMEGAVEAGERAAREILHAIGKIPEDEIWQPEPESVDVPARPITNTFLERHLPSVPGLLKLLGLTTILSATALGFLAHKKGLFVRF

[5] = molecular target: T5, Amine oxidase [flavin-containing] B (Homo sapiens, UniProt P27338); assay: Competitive inhibition of human MAO B by spectrophotometry
T5 sequence (P27338 whole entry): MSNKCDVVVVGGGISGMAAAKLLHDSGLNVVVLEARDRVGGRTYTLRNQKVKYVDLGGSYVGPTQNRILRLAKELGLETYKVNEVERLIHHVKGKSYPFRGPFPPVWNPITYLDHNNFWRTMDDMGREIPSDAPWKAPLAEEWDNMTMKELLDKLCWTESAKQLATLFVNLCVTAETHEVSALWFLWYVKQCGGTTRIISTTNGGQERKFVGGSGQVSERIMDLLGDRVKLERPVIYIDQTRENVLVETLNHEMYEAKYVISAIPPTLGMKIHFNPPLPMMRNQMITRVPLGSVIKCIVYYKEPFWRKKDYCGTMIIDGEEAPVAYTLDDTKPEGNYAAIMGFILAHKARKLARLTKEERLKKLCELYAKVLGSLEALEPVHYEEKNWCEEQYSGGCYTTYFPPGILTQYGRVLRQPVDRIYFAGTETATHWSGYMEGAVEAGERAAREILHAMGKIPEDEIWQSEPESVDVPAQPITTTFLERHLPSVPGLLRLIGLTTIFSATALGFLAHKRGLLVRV

`NS(=O)(=O)Cc1noc2ccccc12` [ZONISAMIDE] was tested, and the “inhibition (INH)” value [1] was “Not Active”, the concentration (Serum) was 600 nM and the pKi [2] was 4.51. For the same molecule, the “inhibition (INH)” value [3] was “Not Active”, the pKi [4] was 5.54 and the pKi [5] was 5.51.
